These are literature values, as cited in patent US11730740B2, “Laureth-4 containing topical formulations” (ARCUTIS BIOTHERAPEUTICS, INC., priority 2020, dated 2023).

For data set [1] the following is noted: 10% w/w surfactant in white petrolatum with 10% salicylic acid and 10% DMSO; 5.0 grams on 6.4×12.7 cm^2 skin; 8 hr.
For data set [2] the following is noted: 10% adjuvant in propylene glycol; infinite dosing 278 μl/cm^2; PG alone control 1.6±0.4.
For a further data set, the target named is JAK 1 (Homo sapiens, UniProt P23458). The note with it: statement in words.
Sequence of JAK 1 (P23458 whole entry, species assumed): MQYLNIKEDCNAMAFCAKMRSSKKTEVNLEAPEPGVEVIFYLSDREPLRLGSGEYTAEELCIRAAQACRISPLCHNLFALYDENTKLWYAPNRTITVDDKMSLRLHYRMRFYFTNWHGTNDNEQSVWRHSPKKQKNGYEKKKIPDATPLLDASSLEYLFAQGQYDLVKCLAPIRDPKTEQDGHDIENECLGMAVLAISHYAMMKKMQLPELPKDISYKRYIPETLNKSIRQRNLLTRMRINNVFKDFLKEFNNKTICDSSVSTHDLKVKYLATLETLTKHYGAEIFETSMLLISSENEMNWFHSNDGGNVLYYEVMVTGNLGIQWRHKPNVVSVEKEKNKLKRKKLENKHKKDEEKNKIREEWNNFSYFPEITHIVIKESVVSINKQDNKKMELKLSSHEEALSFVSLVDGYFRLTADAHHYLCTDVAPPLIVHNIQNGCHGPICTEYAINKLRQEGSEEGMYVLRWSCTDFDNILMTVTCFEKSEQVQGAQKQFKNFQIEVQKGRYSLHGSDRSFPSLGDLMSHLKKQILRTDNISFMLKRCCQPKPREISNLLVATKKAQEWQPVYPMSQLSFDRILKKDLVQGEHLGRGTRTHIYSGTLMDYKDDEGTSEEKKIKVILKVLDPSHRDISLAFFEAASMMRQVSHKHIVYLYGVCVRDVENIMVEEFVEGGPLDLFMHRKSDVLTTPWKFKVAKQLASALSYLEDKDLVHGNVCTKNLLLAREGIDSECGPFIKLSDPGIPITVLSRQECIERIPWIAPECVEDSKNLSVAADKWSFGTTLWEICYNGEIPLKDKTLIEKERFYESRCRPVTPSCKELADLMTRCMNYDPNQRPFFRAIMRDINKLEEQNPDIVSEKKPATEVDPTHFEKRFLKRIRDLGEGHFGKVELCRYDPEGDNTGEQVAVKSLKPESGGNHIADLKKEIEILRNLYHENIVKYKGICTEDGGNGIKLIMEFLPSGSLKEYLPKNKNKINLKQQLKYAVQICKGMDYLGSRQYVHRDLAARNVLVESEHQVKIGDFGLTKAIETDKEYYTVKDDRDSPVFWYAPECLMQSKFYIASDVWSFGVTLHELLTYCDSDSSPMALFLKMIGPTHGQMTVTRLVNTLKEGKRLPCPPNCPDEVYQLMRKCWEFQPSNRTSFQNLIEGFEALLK

Take polyoxyethylene 2 oleyl ether: the “percutaneous absorption of salicylic acid” value (“percutaneous absorption” below) in data set [1] was “increased significantly”. As for `CCCCCCCCC(=O)O` [pelargonic acid], in data set [2], the naloxone flux is given as 201.9±65.4 μg/cm^2-hr.

Consider `CCCCCCCCCCCCO` [lauryl alcohol], for which the naloxone flux in data set [2] was 45.8 μg/cm^2-hr. Take `COc1nsc(NC(=O)N2C[C@H]3C[C@H](N(C)c4ncnc5[nH]ccc45)C[C@H]3C2)n1` [SHR0302, (3 aR,5 S,6aS)—N-(3-methoxyl-1,2,4-thiadiazol-5-yl)-5-(methyl(7H-pyrrolo[2,3-d]pyrimidin-4-yl)amino)hexahydrocyclopenta[c]pyrrole-2(1H)-carboxamide]: on JAK 1, the “inhibition of JAK 1” value is listed as “potent” and the “selectivity for JAK1 over JAK2” value is reported as “high”. As to `CCCCCCCCCCCCOCCOCCOCCOCCO` [laureth-4, tetraethylene glycol monododecyl ether], the “percutaneous absorption” value in data set [1] was “increased significantly”. Also, the naloxone flux in data set [2] is reported as 34.5±8.3 μg/cm^2-hr.

`CC/C=C\C/C=C\C/C=C\CCCCCCCCO` [linolenyl alcohol]: the naloxone flux in data set [2] is 116.3 μg/cm^2-hr. For `CCCCCCCCCCCC(=O)O` [lauric acid], the naloxone flux in data set [2] is 235.2 μg/cm^2-hr.

In the case of `CCC[C@@H]1C[C@@H](C(=O)N[C@@H]([C@H]2O[C@H](SC)[C@H](OP(=O)(O)O)[C@@H](O)[C@H]2O)[C@H](C)Cl)N(C)C1` [Clindamycin phosphate], the solubility in water result (without the addition of laureth-4) is on record as “readily soluble”. Regarding `CC/C=C\C/C=C\C/C=C\CCCCCCCC(=O)O` [linolenic acid 18:2, linolenic acid], the naloxone flux in data set [2] was 103.0 μg/cm^2-hr. On to sorbitan trioleate, for which the “percutaneous absorption” value in data set [1] is recorded as “increased significantly”. On to `CCCCCCCCCC(=O)O` [capric acid], for which, in data set [2], the naloxone flux is 187.9±67.5 μg/cm^2-hr. As to `CC1=C(/C=C/C(C)=C/C=C/C(C)=C/C(=O)O)C(C)(C)CCC1` [tretinoin], the “solubility of tretinoin in VELTIN Gel” value (with laureth-4 (3%) and propylene glycol) is reported as 0.025%. With sorbitan monopalmitate, the “percutaneous absorption” value in data set [1] is listed as “increased significantly”. Consider propylene glycol laurate, for which the naloxone flux in data set [2] is given as 43.8±5.5 μg/cm^2-hr.
